From the supplement of paper PMC8612539
In brackets after ≈: the same amount, converted by molar mass.

System: Mannheimia haemolytica
Experiment: minimum inhibitory concentration (MIC)
Description: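 Broth microdilution MIC (Sensititre BOPO7F bovine plate, CLSI methods) of 19 antimicrobials against field isolates of P. multocida, M. haemolytica, H. somni (deep nasopharyngeal swabs) and E. coli, Enterococcus spp. (rectal swabs) from weaned dairy heifers. Incubation 16-24 h at 35 C. MIC is the lowest concentration preventing visible growth. Values with <= or > lie at the tested range limits. Trimethoprim-sulfamethoxazole is given as the trimethoprim component of a 1:19 mixture.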

CC[C@H]1OC(=O)C[C@@H](O)[C@H](C)[C@@H](O[C@@H]2O[C@H](C)[C@@H](O)[C@H](N(C)C)[C@H]2O)[C@@H](CCN2C[C@H](C)C[C@H](C)C2)C[C@@H](C)C(=O)/C=C/C(C)=C/[C@@H]1CO[C@@H]1O[C@H](C)[C@@H](O)[C@@H](OC)[C@H]1OC [Tilmicosin]
Conditions	minimum inhibitory concentration [µg/mL]
isolate (source animal id): 8	4 (≈ 4.6 µM)
isolate (source animal id): 13	4 (≈ 4.6 µM)
isolate (source animal id): 18	4 (≈ 4.6 µM)
isolate (source animal id): 21	4 (≈ 4.6 µM)
isolate (source animal id): 25	> 16
isolate (source animal id): 27	> 16
isolate (source animal id): 28	16 (≈ 18.4 µM)
isolate (source animal id): 30	8 (≈ 9.2 µM)
isolate (source animal id): 31	> 16
isolate (source animal id): 32	4 (≈ 4.6 µM)
isolate (source animal id): 34	8 (≈ 9.2 µM)
isolate (source animal id): 36	> 16
isolate (source animal id): 37	> 16
isolate (source animal id): 40	4 (≈ 4.6 µM)
isolate (source animal id): 41	4 (≈ 4.6 µM)
isolate (source animal id): 43	4 (≈ 4.6 µM)
isolate (source animal id): 46	> 16
isolate (source animal id): 49	> 16
isolate (source animal id): 50	> 16
isolate (source animal id): 51	4 (≈ 4.6 µM)
isolate (source animal id): 52	4 (≈ 4.6 µM)
isolate (source animal id): 53	4 (≈ 4.6 µM)
isolate (source animal id): 55	4 (≈ 4.6 µM)
isolate (source animal id): 56	4 (≈ 4.6 µM)
isolate (source animal id): 57	> 16
isolate (source animal id): 100	> 16
isolate (source animal id): 103	> 16
isolate (source animal id): 107	16 (≈ 18.4 µM)
isolate (source animal id): 108	16 (≈ 18.4 µM)
isolate (source animal id): 112	> 16
isolate (source animal id): 113	> 16
isolate (source animal id): 121	> 16
isolate (source animal id): 122	> 16
isolate (source animal id): 123	> 16
isolate (source animal id): 126	> 16
isolate (source animal id): 133	> 16
isolate (source animal id): 135	> 16
isolate (source animal id): 138	> 16
isolate (source animal id): 141	> 16
isolate (source animal id): 142	> 16
isolate (source animal id): 145	16 (≈ 18.4 µM)
isolate (source animal id): 149	8 (≈ 9.2 µM)
isolate (source animal id): 151	8 (≈ 9.2 µM)
isolate (source animal id): 152	> 16
isolate (source animal id): 154	8 (≈ 9.2 µM)
isolate (source animal id): 159	> 16
isolate (source animal id): 162	> 16
isolate (source animal id): 170	16 (≈ 18.4 µM)
isolate (source animal id): 171	8 (≈ 9.2 µM)
isolate (source animal id): 172	16 (≈ 18.4 µM)
isolate (source animal id): 173	16 (≈ 18.4 µM)
isolate (source animal id): 179	8 (≈ 9.2 µM)
isolate (source animal id): 180	4 (≈ 4.6 µM)
isolate (source animal id): 183	4 (≈ 4.6 µM)
isolate (source animal id): 186	4 (≈ 4.6 µM)
isolate (source animal id): 187	8 (≈ 9.2 µM)
isolate (source animal id): 188	4 (≈ 4.6 µM)
isolate (source animal id): 190	4 (≈ 4.6 µM)
isolate (source animal id): 191	16 (≈ 18.4 µM)
isolate (source animal id): 192	8 (≈ 9.2 µM)
isolate (source animal id): 201	16 (≈ 18.4 µM)
isolate (source animal id): 202	16 (≈ 18.4 µM)
isolate (source animal id): 209	16 (≈ 18.4 µM)
isolate (source animal id): 211	16 (≈ 18.4 µM)
isolate (source animal id): 220	16 (≈ 18.4 µM)
isolate (source animal id): 221	8 (≈ 9.2 µM)
isolate (source animal id): 223	8 (≈ 9.2 µM)
isolate (source animal id): 233	8 (≈ 9.2 µM)
isolate (source animal id): 237	> 16
isolate (source animal id): 241	> 16
isolate (source animal id): 252	> 16
isolate (source animal id): 253	> 16
isolate (source animal id): 259	> 16
isolate (source animal id): 260	> 16
isolate (source animal id): 262	> 16
isolate (source animal id): 282	> 16
isolate (source animal id): 287	> 16
isolate (source animal id): 288	4 (≈ 4.6 µM)
isolate (source animal id): 291	4 (≈ 4.6 µM)
isolate (source animal id): 293	> 16
isolate (source animal id): 298	> 16
isolate (source animal id): 299	> 16
isolate (source animal id): 300	8 (≈ 9.2 µM)
isolate (source animal id): 302	> 16
isolate (source animal id): 304	> 16
isolate (source animal id): 306	4 (≈ 4.6 µM)
isolate (source animal id): 308	4 (≈ 4.6 µM)
isolate (source animal id): 309	4 (≈ 4.6 µM)
isolate (source animal id): 313	> 16
isolate (source animal id): 318	> 16
isolate (source animal id): 320	8 (≈ 9.2 µM)
isolate (source animal id): 321	> 16
isolate (source animal id): 323	> 16
isolate (source animal id): 324	> 16
isolate (source animal id): 326	> 16
isolate (source animal id): 328	> 16
isolate (source animal id): 329	> 16
isolate (source animal id): 333	> 16
isolate (source animal id): 335	> 16
isolate (source animal id): 338	> 16

COc1cc(NS(=O)(=O)c2ccc(N)cc2)nc(OC)n1 [sulfadimethoxine]
Conditions	minimum inhibitory concentration [µg/mL]
isolate (source animal id): 8	> 256
isolate (source animal id): 13	> 256
isolate (source animal id): 18	> 256
isolate (source animal id): 21	> 256
isolate (source animal id): 25	> 256
isolate (source animal id): 27	> 256
isolate (source animal id): 28	≤ 256
isolate (source animal id): 30	> 256
isolate (source animal id): 31	≤ 256
isolate (source animal id): 32	> 256
isolate (source animal id): 34	> 256
isolate (source animal id): 36	> 256
isolate (source animal id): 37	> 256
isolate (source animal id): 40	> 256
isolate (source animal id): 41	> 256
isolate (source animal id): 43	> 256
isolate (source animal id): 46	> 256
isolate (source animal id): 49	> 256
isolate (source animal id): 50	> 256
isolate (source animal id): 51	> 256
isolate (source animal id): 52	> 256
isolate (source animal id): 53	> 256
isolate (source animal id): 55	> 256
isolate (source animal id): 56	> 256
isolate (source animal id): 57	> 256
isolate (source animal id): 100	> 256
isolate (source animal id): 103	> 256
isolate (source animal id): 107	> 256
isolate (source animal id): 108	> 256
isolate (source animal id): 112	> 256
isolate (source animal id): 113	> 256
isolate (source animal id): 121	> 256
isolate (source animal id): 122	> 256
isolate (source animal id): 123	> 256
isolate (source animal id): 126	> 256
isolate (source animal id): 133	> 256
isolate (source animal id): 135	> 256
isolate (source animal id): 138	> 256
isolate (source animal id): 141	> 256
isolate (source animal id): 142	> 256
isolate (source animal id): 145	> 256
isolate (source animal id): 149	≤ 256
isolate (source animal id): 151	≤ 256
isolate (source animal id): 152	≤ 256
isolate (source animal id): 154	≤ 256
isolate (source animal id): 159	> 256
isolate (source animal id): 162	> 256
isolate (source animal id): 170	> 256
isolate (source animal id): 171	> 256
isolate (source animal id): 172	> 256
isolate (source animal id): 173	> 256
isolate (source animal id): 179	> 256
isolate (source animal id): 180	> 256
isolate (source animal id): 183	> 256
isolate (source animal id): 186	> 256
isolate (source animal id): 187	> 256
isolate (source animal id): 188	> 256
isolate (source animal id): 190	> 256
isolate (source animal id): 191	> 256
isolate (source animal id): 192	> 256
isolate (source animal id): 201	> 256
isolate (source animal id): 202	> 256
isolate (source animal id): 209	> 256
isolate (source animal id): 211	≤ 256
isolate (source animal id): 220	> 256
isolate (source animal id): 221	> 256
isolate (source animal id): 223	> 256
isolate (source animal id): 233	> 256
isolate (source animal id): 237	≤ 256
isolate (source animal id): 241	> 256
isolate (source animal id): 252	> 256
isolate (source animal id): 253	> 256
isolate (source animal id): 259	> 256
isolate (source animal id): 260	> 256
isolate (source animal id): 262	> 256
isolate (source animal id): 282	> 256
isolate (source animal id): 287	> 256
isolate (source animal id): 288	> 256
isolate (source animal id): 291	≤ 256
isolate (source animal id): 293	> 256
isolate (source animal id): 298	> 256
isolate (source animal id): 299	> 256
isolate (source animal id): 300	≤ 256
isolate (source animal id): 302	> 256
isolate (source animal id): 304	> 256
isolate (source animal id): 306	> 256
isolate (source animal id): 308	≤ 256
isolate (source animal id): 309	≤ 256
isolate (source animal id): 313	> 256
isolate (source animal id): 318	> 256
isolate (source animal id): 320	≤ 256
isolate (source animal id): 321	> 256
isolate (source animal id): 323	> 256
isolate (source animal id): 324	> 256
isolate (source animal id): 326	> 256
isolate (source animal id): 328	> 256
isolate (source animal id): 329	> 256
isolate (source animal id): 333	> 256
isolate (source animal id): 335	> 256
isolate (source animal id): 338	> 256
